Calls of active or inactive are those of the source. The rule behind the calls is not given here.
What was measured:
[1] = Cmax in fasted human at 800 mg, po every 24 hrs measured on day 8; type: ADME, organism-based; parameters: dose 800 mg, route oral; settings: in vivo
[2] = Terminal half life […] at 300 to 500 mg; type: ADME
[3] = system: Human immunodeficiency virus 1; assay: Antiviral activity against HIV1 infected in fasted human assessed as as viral load decay rate as viral log10 RNA copies/ml/day at 1000 mg, po administered every day as five enteric-coated tablets followed by a single dose on day 8 measured on day 9; type: functional
Homo sapiens [4] = organism: Homo sapiens; assay: Toxicity in healthy human assessed as occurrence of adverse events; type: organism-based; settings: in vivo
[5] = Tmax in fasted human at 600 mg, po every 24 hrs measured on day 8; type: ADME, organism-based; settings: in vivo
Homo sapiens [6] = organism: Homo sapiens; assay: Reduction in uric acid level in human plasma; type: functional, organism-based
[7] = Cmax in fasted human plasma at 400 mg, po every 12 hrs measured on day 8; type: ADME, organism-based; parameters: dose 400 mg, route oral
[8] = Plasma protein binding in rhesus monkey; type: ADME, cell-free, Macaca mulatta; settings: read-out: PPB
[9] = Renal clearance in rhesus monkey; type: ADME, organism-based, Macaca mulatta, Kidney; settings: in vivo, read-out: CL_renal
[10] = Tmax in fasted human at 800 mg, po every 24 hrs measured on day 8; type: ADME, organism-based; settings: in vivo
[11] = system: Human immunodeficiency virus 1; assay: Antiviral activity against HIV1 infected in human assessed as change in CD4 expressing T-cell count from baseline at 600 mg, po BID for 7 days as four modified-release capsules followed by a single dose on day 8 measured on day 9 relative to pooled placebo control; type: functional
[12] = Drug concentration at steady state in fasted human plasma at 800 mg, po every 24 hrs measured on day 8; type: ADME, organism-based; settings: read-out: Drug uptake
[13] = AUC (0 to 12 hrs) in human plasma at 500 mg administered as multiple doses, BID; type: ADME, organism-based; parameters: dose 500 mg, time < 12 hr
[14] = Renal clearance in dog; type: ADME, organism-based, Canis lupus familiaris, Kidney; settings: in vivo, read-out: CL_renal
[15] = Cmax in fasted human at 1000 mg, po every 24 hrs measured on day 8; type: ADME, organism-based; parameters: dose 1000 mg, route oral; settings: plasma
[16] = system: Human immunodeficiency virus 1; assay: Antiviral activity against HIV1 infected in human assessed as change in CD4 expressing T-cell count from baseline at 800 mg, po administered every day as four enteric-coated tablets followed by a single dose on day 8 measured on day 9 relative to pooled placebo control; type: functional
[17] = system: Human immunodeficiency virus 1; assay: Antiviral activity against HIV1 infected in human assessed as change in CD4 expressing T-cell count from baseline at 1000 mg, po administered every day as five enteric-coated tablets followed by a single dose on day 8 measured on day 9 relative to pooled placebo control; type: functional
[18] = system: Human immunodeficiency virus 1; assay: Antiviral activity against HIV1 infected in human assessed as change in CD8 expressing T-cell count from baseline at 800 mg, po administered every day as four enteric-coated tablets followed by a single dose on day 8 measured on day 9 relative to pooled placebo control; type: functional
[19] = Renal clearance in human; type: ADME, organism-based, Kidney; settings: in vivo, read-out: CL_renal
[20] = system: Human immunodeficiency virus 1; assay: Antiviral activity against HIV1 infected in fasted human assessed as decrease in log10 HIV RNA copies/ml at 1000 mg, po […] followed by a single dose on day 8 measured on day 9 relative to pooled placebo control; type: functional
[21] = Cmax in human plasma at 500 mg administered as multiple doses, BID; type: ADME, organism-based; parameters: dose 500 mg
[22] = Drug concentration at steady state in fasted human plasma at 400 mg, po every 12 hrs measured on day 8; type: ADME, organism-based; settings: read-out: Drug uptake
[23] = system: Human immunodeficiency virus 1; assay: Antiviral activity against HIV1 infected in fasted human assessed as decrease in log10 HIV RNA copies/ml at 600 mg, po […] followed by a single dose on day 8 measured on day 9 relative to pooled placebo control; type: functional
[24] = Half life in fasted human at 400 mg, po every 24 hrs measured on day 8; type: ADME, organism-based; settings: in vivo
[25] = Plasma protein binding in human; type: ADME, cell-free; settings: read-out: PPB
[26] = system: Human immunodeficiency virus 1; assay: Antiviral activity against HIV1 infected in human assessed as change in CD4 expressing T-cell count from baseline at 400 mg, po BID for 7 days as four modified-release capsules followed by a single dose on day 8 measured on day 9 relative to pooled placebo control; type: functional
[27] = Tmax in fasted human at 400 mg, po every 12 hrs measured on day 8; type: ADME, organism-based; settings: in vivo
Homo sapiens [28] = assay: Reduction in uric acid level in healthy human serum at 400 mg, po BID; type: functional
[29] = Plasma protein binding in dog; type: ADME, cell-free, Canis lupus familiaris; settings: read-out: PPB
[30] = Tmax in fasted human plasma at 600 mg; type: ADME, organism-based
[31] = system: Human immunodeficiency virus 1; assay: Antiviral activity against HIV1 infected in fasted human assessed as decrease in plasma viral log10 RNA copies/ml at 400 mg, po BID for 7 days as four modified-release capsules followed by a single dose on day 8 measured on day 9 relative to pooled placebo control; type: functional
[32] = Half life in fasted human at 600 mg, po every 24 hrs measured on day 8; type: ADME, organism-based; settings: in vivo
[33] = Drug excretion in human urine; type: ADME; settings: read-out: Activity

SMILES: O=C(CSc1nnc(Br)n1-c1ccc(C2CC2)c2ccccc12)Nc1ccc(C(=O)O)cc1Cl
- Cmax [1]: 1910 ng/mL
- half-life [2]: 10.4 h
- Activity [3]: -0.22 mL⁻¹
- Activity (Homo sapiens [4]): Non-toxic
- Tmax [5]: 2 h
- Activity (Homo sapiens [6]): Active
- Cmax [7]: 2990 ng/mL
- fraction unbound [8]: < 0.01
- CL renal [9]: ≤ 1 mL/min
- Tmax [10]: 3 h
- Activity [11]: -14.44 /mm3
- concentration at 24 h [12]: 310 ng/mL
- AUC at 12 h [13]: 3770 ng·h/mL
- CL renal [14]: ≤ 1 mL/min
- Cmax [15]: 3700 ng/mL
- Activity [16]: 100.74 /mm3
- Activity [17]: 90.48 /mm3
- Activity [18]: 79.41 /mm3
- CL renal [19]: ≤ 1 mL/min
- Activity [20]: -1.696 mL⁻¹
- Cmax [21]: 746 ng/mL
- concentration at 12 h [22]: 505 ng/mL
- Activity [23]: -1.394 mL⁻¹
- half-life [24]: 11.3 h
- fraction unbound [25]: < 0.01
- Activity [26]: 19.22 /mm3
- Tmax [27]: 1.5 h
- Activity (Homo sapiens [28]): 88 µmol/L
- fraction unbound [29]: < 0.01
- Tmax [30]: 4.92 h
- Activity [31]: -2.0608 mL⁻¹
- half-life [32]: 7.09 h
- dose excreted [33]: < 0.06%

— ChEMBL document CHEMBL1629701, “Phase 2a randomized controlled trial of short-term activity, safety, and pharmacokinetics of a novel nonnucleoside reverse transcriptase inhibitor, RDEA806, in HIV-1-positive, antiretroviral-naive subjects” (Antimicrob Agents Chemother, 2010)
